# Source: ChEMBL document CHEMBL1201862, “PubChem BioAssay data set” (2004)
# Active and inactive are the calls of the source.
# Experiments:
# [1] = blockers of HIV-1 envelope-mediated cell-cell fusion – cherry-pick, dose response (AID 652057); assay type: functional, cell-based
# Interleukin-8 = target: T1, Interleukin-8 (Homo sapiens, UniProt P10145); test: Dose Response confirmation of uHTS small molecule hits for cystic fibrosis induced NFkb Inhibitors in a PAF-induced IL8 counterscreen.; assay type: functional; conditions: read-out: IC50_Mean
# T1 sequence (P10145 whole entry): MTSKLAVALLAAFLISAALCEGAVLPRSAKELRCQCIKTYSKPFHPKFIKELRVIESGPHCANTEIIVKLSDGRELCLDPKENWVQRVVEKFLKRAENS
# [2] = off-target signal loss in HeLa-CEM21 co-culture – HeLa F-luc CTL cells, cherry-picked, counter-screen for HIV-1 Env fusion inhibitor project, dose response (AID 652040); assay type: functional, cell-based;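 note: potency for signal decrease marking cytotoxic or nonspecific inhibition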
# [3] = HIV-1 AD8 envelope cell-cell fusion blockers – cherry-pick, dose response (AID 652062); assay type: functional, cell-based;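 note: luciferase signal from cell-cell fusion driven by HIV-1 clade B AD8 Env; potency is for inhibitors of fusion seen as a drop in luminescence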
# [4] = target: Mitogen-activated protein kinase 10 (Homo sapiens, UniProt P53779); test: Dose response biochemical screening assay for inhibitors of c-Jun N-Terminal Kinase 3 (JNK3). [Related pubchem assays: 746 ]
# Mitogen-activated protein kinase 10, sequence (P53779 whole entry, the tested form may be a part): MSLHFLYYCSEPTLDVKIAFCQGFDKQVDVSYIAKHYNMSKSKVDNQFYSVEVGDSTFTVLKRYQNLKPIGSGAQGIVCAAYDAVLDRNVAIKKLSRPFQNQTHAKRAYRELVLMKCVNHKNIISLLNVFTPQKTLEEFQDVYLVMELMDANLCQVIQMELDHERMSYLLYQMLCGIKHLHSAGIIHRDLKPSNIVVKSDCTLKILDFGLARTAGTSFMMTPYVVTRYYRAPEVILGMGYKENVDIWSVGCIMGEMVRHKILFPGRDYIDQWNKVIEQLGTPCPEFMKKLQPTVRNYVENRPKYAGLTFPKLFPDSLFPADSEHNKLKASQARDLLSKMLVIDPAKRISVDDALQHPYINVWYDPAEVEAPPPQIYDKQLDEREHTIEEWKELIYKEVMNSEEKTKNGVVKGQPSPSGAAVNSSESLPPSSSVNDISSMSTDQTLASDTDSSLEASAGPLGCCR
# [5] = target: Photoreceptor-specific nuclear receptor (Homo sapiens, UniProt Q9Y5X4); assay type: functional, cell-based;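 note: CHO-S cells with Gal4-NCOR and VP16-NR2E3 two-hybrid luciferase reporter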
# Photoreceptor-specific nuclear receptor, sequence (Q9Y5X4 whole entry, the tested form may be a part): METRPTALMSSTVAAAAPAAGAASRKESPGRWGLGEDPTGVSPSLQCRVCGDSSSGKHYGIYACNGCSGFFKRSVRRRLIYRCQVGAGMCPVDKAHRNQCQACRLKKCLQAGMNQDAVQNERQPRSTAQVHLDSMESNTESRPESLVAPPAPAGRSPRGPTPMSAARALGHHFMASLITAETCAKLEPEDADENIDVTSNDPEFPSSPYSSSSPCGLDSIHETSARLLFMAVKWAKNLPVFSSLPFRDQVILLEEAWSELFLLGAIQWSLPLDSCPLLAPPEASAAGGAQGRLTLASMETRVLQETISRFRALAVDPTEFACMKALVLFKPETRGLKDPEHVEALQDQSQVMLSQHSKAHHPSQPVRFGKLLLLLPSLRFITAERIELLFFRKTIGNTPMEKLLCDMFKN
# [6] = Fluorescence-based cell-based high throughput dose response assay for inhibitors of the interaction of nucleotide-binding oligomerization domain containing 2 (NOD2) and the receptor-interacting serine-threonine kinase 2 (RIPK2).; assay type: functional; conditions: Homo sapiens
# Hexokinase = target: T2, Hexokinase (Trypanosoma brucei, UniProt Q38C41); test: Confirmation assay for inhibitors of Trypanosoma brucei hexokinase 1-Analogue-first series. [Related pubchem assays (depositor defined):AID1430, AID1632, AID2516, AID2560, AID2579, AID2600, AID449725, AID492951]; assay type: functional
# T2 sequence (Q38C41 whole entry): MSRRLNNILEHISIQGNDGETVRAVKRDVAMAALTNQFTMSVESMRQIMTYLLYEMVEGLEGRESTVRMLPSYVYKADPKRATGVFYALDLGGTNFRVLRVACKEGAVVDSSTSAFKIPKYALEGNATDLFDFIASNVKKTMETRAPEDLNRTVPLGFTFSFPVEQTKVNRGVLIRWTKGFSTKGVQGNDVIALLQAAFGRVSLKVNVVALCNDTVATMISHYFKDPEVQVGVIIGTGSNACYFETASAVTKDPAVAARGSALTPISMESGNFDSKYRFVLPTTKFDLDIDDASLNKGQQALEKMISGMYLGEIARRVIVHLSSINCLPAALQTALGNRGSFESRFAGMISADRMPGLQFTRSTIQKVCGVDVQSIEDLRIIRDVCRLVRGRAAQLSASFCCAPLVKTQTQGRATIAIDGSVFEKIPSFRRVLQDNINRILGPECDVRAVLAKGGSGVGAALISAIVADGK
# Beta Lactamase = Beta Lactamase (Pseudomonas aeruginosa, UniProt Q932Y6); test: BLA reporter interference, concentration series – BLA reporter cells, FRET fluorescence, artefact control for NOD2-RIPK2 interaction inhibitor project, dose response (AID 651552); assay type: functional, cell-based
# Beta Lactamase, sequence (Q932Y6 whole entry): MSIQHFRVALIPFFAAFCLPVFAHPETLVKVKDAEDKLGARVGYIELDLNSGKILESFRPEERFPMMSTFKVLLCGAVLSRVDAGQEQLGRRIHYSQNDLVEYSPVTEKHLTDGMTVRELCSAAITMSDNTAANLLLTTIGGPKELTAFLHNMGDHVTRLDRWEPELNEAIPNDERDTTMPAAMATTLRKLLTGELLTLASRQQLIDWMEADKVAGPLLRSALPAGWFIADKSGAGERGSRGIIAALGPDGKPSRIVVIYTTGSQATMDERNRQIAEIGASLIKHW
# [7] = target: Glucose-6-phosphate 1-dehydrogenase (Homo sapiens, UniProt P11413); test: inhibition of Homo sapiens G6PD, dose series – biochemical, fluorescence, selectivity assay for P. falciparum G6PD inhibitor project, dose response (AID 504792); assay type: functional
# Glucose-6-phosphate 1-dehydrogenase, sequence (P11413 whole entry): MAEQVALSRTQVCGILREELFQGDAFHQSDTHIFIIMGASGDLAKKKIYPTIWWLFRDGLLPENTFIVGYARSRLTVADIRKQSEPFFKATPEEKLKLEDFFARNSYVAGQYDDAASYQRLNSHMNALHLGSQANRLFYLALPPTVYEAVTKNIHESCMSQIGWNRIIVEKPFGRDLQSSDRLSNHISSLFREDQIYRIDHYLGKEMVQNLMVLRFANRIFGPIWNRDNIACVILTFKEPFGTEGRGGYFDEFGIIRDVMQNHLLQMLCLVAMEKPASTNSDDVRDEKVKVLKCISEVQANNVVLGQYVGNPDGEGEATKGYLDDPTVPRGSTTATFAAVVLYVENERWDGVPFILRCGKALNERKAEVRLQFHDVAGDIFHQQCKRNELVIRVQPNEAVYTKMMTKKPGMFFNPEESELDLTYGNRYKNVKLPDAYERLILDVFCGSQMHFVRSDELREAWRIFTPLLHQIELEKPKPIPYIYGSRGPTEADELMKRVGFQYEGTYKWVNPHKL
# [8] = target: T3, Rac GTPase-activating protein 1 (Homo sapiens, UniProt Q9H0H5); test: blockers of MgcRacGAP-driven Rac1 GTP hydrolysis – biochemical, ADP Hunter fluorescence, primary and confirmatory, confirmation (AID 624330); assay type: functional
# T3 sequence (Q9H0H5 whole entry): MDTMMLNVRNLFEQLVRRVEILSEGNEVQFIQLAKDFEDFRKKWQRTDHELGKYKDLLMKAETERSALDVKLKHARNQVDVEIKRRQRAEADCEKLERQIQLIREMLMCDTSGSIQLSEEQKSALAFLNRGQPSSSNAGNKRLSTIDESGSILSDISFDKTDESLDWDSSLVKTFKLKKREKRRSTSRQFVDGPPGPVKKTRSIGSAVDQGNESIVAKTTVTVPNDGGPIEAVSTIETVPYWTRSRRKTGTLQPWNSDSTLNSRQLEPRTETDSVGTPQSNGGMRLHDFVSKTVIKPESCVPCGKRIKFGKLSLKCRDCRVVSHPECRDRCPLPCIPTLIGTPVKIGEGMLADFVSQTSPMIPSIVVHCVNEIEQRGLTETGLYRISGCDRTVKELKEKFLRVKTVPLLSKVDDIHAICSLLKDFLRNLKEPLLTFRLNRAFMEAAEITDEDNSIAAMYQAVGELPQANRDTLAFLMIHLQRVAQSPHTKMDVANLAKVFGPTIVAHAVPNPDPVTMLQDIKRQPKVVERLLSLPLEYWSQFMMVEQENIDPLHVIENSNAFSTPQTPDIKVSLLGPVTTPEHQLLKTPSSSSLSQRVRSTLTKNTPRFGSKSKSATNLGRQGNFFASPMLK
# [9] = target: Mitochondrial peptide methionine sulfoxide reductase (Bos taurus, UniProt P54149); test: Absorbance-based biochemical high throughput dose response assay for activators of Methionine sulfoxide reductase A (MsrA).; assay type: functional
# Mitochondrial peptide methionine sulfoxide reductase, sequence (P54149 whole entry): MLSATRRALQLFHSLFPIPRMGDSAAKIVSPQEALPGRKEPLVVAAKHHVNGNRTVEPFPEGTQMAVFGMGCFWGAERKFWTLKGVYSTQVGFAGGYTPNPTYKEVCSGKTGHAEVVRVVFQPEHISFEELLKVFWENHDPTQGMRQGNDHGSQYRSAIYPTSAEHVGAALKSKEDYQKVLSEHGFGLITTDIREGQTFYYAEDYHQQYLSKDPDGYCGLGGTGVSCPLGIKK
# [10] = target: T4, Corticotropin-releasing factor receptor 2/Corticotropin-releasing factor-binding protein (Homo sapiens, UniProt P24387+Q13324); test: Dose Response confirmation of uHTS hits for small molecule antagonists of the CRF-binding protein and CRF-R2 receptor complex.; assay type: functional; conditions: read-out: IC50_Mean
# T4 sequence (Q13324 whole entry): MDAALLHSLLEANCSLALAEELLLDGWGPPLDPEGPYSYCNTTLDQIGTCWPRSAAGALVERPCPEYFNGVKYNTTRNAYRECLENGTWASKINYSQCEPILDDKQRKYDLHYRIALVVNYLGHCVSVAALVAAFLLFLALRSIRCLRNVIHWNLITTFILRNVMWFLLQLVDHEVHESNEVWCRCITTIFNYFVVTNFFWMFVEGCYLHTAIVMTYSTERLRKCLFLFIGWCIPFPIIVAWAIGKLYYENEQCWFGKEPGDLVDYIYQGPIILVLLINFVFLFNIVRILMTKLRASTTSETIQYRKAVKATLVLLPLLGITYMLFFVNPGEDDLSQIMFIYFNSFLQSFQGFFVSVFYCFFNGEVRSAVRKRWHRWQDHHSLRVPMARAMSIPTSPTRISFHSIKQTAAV
# T4 sequence (P24387 whole entry): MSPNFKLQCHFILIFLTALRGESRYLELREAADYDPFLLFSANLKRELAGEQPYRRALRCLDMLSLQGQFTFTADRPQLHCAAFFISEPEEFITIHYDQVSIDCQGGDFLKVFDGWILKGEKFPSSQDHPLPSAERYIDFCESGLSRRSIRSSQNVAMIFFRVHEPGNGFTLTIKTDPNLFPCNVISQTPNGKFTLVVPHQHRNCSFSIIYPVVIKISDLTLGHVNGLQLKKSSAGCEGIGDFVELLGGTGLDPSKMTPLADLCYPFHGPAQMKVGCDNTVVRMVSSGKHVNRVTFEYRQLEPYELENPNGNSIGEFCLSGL
# [11] = blockers of CRF-binding protein–CRF-R2 complex – cell-based, uHTS hits, 384-well, dose response (AID 651639); assay type: functional, Homo sapiens; conditions: read-out: IC50_Mean
# [12] = target: T4, Corticotropin-releasing factor receptor 2/Corticotropin-releasing factor-binding protein; test: activators of CRF receptor 2 with binding protein – uHTS hits, confirmation (AID 602473); assay type: functional; conditions: read-out: EC50_Mean
# [13] = target: Adenosylmethionine-8-amino-7-oxononanoate aminotransferase (Mycobacterium tuberculosis, UniProt P9WQ81); test: Mycobacterium tuberculosis BioA enzyme inhibitor Measured in Biochemical System Using Plate Reader - 2163-02_Inhibitor_Dose_CherryPick_Activity.; assay type: functional, Mycobacterium tuberculosis UT205
# Adenosylmethionine-8-amino-7-oxononanoate aminotransferase, sequence (P9WQ81 whole entry): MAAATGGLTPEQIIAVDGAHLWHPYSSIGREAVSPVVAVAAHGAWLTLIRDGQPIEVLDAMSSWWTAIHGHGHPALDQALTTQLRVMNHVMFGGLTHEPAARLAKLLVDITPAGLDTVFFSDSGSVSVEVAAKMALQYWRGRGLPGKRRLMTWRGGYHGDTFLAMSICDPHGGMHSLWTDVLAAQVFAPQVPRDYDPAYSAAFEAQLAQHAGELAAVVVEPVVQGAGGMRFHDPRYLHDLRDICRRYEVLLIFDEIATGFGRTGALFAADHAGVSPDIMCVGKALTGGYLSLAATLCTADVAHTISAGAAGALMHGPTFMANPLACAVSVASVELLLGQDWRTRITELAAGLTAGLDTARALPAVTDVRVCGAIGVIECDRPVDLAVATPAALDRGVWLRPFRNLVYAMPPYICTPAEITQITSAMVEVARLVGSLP
# cells [14] = assay type: functional, cell-based
# cells [15] = assay type: functional, cell-based; remark: listed apart in the source
# [16] = bead-based luminescence quenchers, dual-tagged ARNT – biochemical, AlphaScreen, cherry-pick, artefact control for ARNT-TACC3 interaction inhibitor project, dose response (AID 651705); assay type: functional;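 note: AlphaScreen bead proximity signal that flags compounds interfering with the detection technology; potency reflects signal decrease which marks the compound as an assay artifact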
# [17] = inhibition of ARNT PAS-B/TACC3 complex formation – biochemical, AlphaScreen, cherry-picked samples, confirmation (AID 651703); assay type: functional, Homo sapiens;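 note: His-tagged ARNT PAS-B domain paired with GST-TACC3 E629A dimer coactivator fragment; potency of inhibitors that break up the complex and lower AlphaScreen signal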
# [18] = target: T5, Replicative DNA helicase DnaB (Mycobacterium tuberculosis, UniProt P9WMR3); test: DnaB intein splicing inhibitors, dose response, biochemical, cell-free fluorescence (AID 449749); assay type: functional
# T5 sequence (P9WMR3 whole entry): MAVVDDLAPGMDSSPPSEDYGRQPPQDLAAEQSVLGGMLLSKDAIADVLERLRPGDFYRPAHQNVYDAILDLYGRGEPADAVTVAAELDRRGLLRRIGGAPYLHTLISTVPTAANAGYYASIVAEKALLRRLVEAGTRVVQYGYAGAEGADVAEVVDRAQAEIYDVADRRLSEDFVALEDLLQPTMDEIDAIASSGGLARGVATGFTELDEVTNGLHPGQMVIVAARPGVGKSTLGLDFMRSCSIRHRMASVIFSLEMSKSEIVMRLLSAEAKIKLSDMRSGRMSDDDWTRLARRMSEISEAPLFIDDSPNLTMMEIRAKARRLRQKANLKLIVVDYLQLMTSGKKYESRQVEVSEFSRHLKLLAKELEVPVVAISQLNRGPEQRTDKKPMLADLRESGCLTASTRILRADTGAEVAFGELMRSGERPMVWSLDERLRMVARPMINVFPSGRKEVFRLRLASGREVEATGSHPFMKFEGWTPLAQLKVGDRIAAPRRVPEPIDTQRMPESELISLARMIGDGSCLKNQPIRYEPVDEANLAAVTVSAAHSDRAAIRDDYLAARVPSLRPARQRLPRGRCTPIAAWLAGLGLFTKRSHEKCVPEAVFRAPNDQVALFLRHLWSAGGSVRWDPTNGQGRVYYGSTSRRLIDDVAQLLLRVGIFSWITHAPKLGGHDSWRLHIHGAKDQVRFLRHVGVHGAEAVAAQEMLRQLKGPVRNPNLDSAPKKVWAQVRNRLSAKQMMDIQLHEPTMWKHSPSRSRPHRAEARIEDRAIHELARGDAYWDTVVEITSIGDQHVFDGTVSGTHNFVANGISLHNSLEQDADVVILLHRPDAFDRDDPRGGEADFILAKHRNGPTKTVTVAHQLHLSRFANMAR
# Protein RecA = target: T6, Protein RecA (Mycobacterium tuberculosis, UniProt P9WHJ3); test: Fluorescence Cell-Free Homogeneous Dose Retest to Identify Inhibitors of RecA-Intein Splicing Activity. [Related pubchem assays (depositor defined):AID2097, AID2223, AID489010, AID492950]; assay type: functional
# T6 sequence (P9WHJ3 whole entry): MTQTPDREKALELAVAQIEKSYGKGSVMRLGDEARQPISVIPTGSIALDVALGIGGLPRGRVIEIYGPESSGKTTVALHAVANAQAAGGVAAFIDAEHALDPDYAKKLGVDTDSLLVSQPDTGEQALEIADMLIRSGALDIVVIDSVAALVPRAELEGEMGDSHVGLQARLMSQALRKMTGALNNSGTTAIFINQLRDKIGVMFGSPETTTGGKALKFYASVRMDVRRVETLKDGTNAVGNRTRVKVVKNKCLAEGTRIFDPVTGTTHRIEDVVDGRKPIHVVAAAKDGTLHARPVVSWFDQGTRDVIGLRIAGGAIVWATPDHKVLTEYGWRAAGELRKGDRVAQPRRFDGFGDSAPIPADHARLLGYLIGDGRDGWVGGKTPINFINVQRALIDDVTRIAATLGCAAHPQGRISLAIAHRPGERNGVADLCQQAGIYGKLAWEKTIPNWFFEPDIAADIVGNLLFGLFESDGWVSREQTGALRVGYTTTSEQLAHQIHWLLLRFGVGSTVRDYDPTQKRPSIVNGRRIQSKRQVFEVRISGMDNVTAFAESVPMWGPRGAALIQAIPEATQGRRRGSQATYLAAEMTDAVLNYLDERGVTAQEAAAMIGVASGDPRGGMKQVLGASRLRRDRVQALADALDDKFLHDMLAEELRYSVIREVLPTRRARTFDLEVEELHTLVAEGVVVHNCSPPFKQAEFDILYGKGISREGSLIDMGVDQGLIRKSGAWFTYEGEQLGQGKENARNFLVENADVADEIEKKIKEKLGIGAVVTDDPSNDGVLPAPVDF
# [19] = target: T7, Probable nicotinate-nucleotide adenylyltransferase (Staphylococcus aureus (strain N315), UniProt P65502); assay type: functional, Staphylococcus aureus subsp. aureus N315; conditions: read-out: IC50_Mean;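 for IC50 Mean: confirmatory dose-response retesting of NadD inhibitor hits first found in an ultra-high-throughput screen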
# T7 sequence (P65502 whole entry): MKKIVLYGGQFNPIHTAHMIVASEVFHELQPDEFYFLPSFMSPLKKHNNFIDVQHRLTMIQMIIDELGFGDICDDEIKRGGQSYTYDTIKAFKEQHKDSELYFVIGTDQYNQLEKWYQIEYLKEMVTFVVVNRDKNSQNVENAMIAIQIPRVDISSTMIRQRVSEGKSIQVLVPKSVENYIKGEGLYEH
# [20] = target: T7, Probable nicotinate-nucleotide adenylyltransferase; assay type: functional, Staphylococcus aureus subsp. aureus N315
structure (smiles),measurement,setting,value
COc1ccc2ncn(-c3ccccc3)c2c1,AC50,[1],11.6 µM (active)
same,IC50,Interleukin-8,17.3 µM (inactive)
same,AC50,[2],20.1 µM (active)
same,AC50,[3],40.2 µM (active)
same,IC50,[4],34.9 µM (not active)
O=C1NC(=O)C(=Cc2ccc(Cl)cc2Cl)S1,IC50,[5],4.65 µM (active)
O=c1c2ccc(F)cc2sn1-c1ccccc1,IC50,[6],5.43 µM (active)
same,IC50,Hexokinase,2.31 µM (active)
same,IC50,Beta Lactamase,23.4 µM (inactive)
same,IC50,[7],11.8 µM (active)
same,IC50,[8],36.4 µM (active)
same,EC50,[9],> 104 µM (inactive)
O=[N+]([O-])c1ccc(NS(=O)(=O)c2ccccc2)c(Cl)c1,IC50,[10],4.45 µM (active)
same,IC50,[11],> 20 µM (inactive)
same,IC50,[5],3.22 µM (active)
same,EC50,[12],> 53 µM (inactive)
O=C(Nc1ccc(F)c(F)c1)C1CCN(S(=O)(=O)c2cccs2)CC1,AC50,[13],0.564 µM (active)
CC(=O)c1ccc(C(=O)N2CCCC(Nc3ccc(C(C)C)cc3)C2)s1 (stereo unspecified),EC50,cells [14],> 350 µM (not active)
same,AC50,[13],0.833 µM (active)
same,EC50,cells [15],> 350 µM (not active)
Cc1ccccc1/C=N/N1C(=O)CSC1=S,AC50,[16],135 µM (active)
same,AC50,[17],109 µM (active)
CCn1c(SCC(=O)Nc2nc(-c3ccc(C)cc3)cs2)nnc1-c1ccccc1O,AC50,[18],3.46 µM (active)
same,EC50,Protein RecA,174 µM (active)
same,IC50,[19],41.6 µM (active)
same,IC50,[20],17.9 µM (active)
